Measurements reported in paper PMC6112376, “Comprehensive Analyses and Prioritization of Tox21 10K Chemicals Affecting Mitochondrial Function by in-Depth Mechanistic Studies” (Environmental Health Perspectives, 2018).
Structures can show the parent of a compound that is named as a salt. Where two headings read alike, the source gives them in different places.

Key:
HepG2 cells [1] = conditions: for IC50: read-out: MMP assays IC50 (µM) HepG2
rat primary hepatocytes [2] = tested on: rat primary hepatocytes
HepG2 cells [3] = conditions: cited from earlier work
rat primary hepatocytes [4] = assay: MMP assay in rat primary hepatocytes; conditions: for IC50: read-out: MMP assays IC50 (µM) Rat Hepatocytes
[5] = read-out: MMP assays IC50 (µM), qHTS-HepG2
[6] = HepG2 cells, single number from one experiment
[7] = read-out: MMP assays IC50 (µM) qHTS-HepG2

Compound: CCO[Si](CC(C)C)(OCC)OCC [Triethoxy(2-methylpropyl)silane]
- MMP assays efficacy (%) HepG2 (HepG2 cells [1]): -83%
- IC50 (HepG2 cells [1]): 35.5 µM
- MMP assays efficacy (%) Rat Hepatocytes (rat primary hepatocytes [2]): inactive
- MMP assays efficacy (%) qHTS-HepG2 (HepG2 cells [3]): -66±5%
- IC50 (HepG2 cells [3]; [5]): 28.9 ± 6.98 µM
- MMP assays IC50 (µM) Rat Hepatocytes (rat primary hepatocytes [4]): inactive

Compound: N=C(N)NN=C(/C=C/c1ccc([N+](=O)[O-])o1)/C=C/c1ccc([N+](=O)[O-])o1 [Nitrovin]
- MMP assays efficacy (%) HepG2 (HepG2 cells [1]): -118%
- IC50 (HepG2 cells [1]): 5.48 µM
- MMP assays efficacy (%) Rat Hepatocytes (rat primary hepatocytes [2]): -89±11%
- MMP assays efficacy (%) qHTS-HepG2 (HepG2 cells [3]): -94±2%
- IC50 (HepG2 cells [3]; [5]): 3.27 ± 0.57 µM
- IC50 (rat primary hepatocytes [4]): 16.4 ± 1.33 µM

Compound: CC(=O)[O][Sn]([c]1ccccc1)([c]1ccccc1)[c]1ccccc1 [Triphenyltin acetate]
- MMP assays efficacy (%) HepG2 (HepG2 cells [1]): -94%
- IC50 (HepG2 cells [1]): 1.12 µM
- MMP assays efficacy (%) Rat Hepatocytes (rat primary hepatocytes [2]): -74±32%
- MMP assays efficacy (%) qHTS-HepG2 (HepG2 cells [3]): -99±5%
- IC50 (HepG2 cells [3]; [5]): 0.12 ± 0.04 µM
- IC50 (rat primary hepatocytes [4]): 24.1 ± 10.1 µM

Compound: CS(=O)(=O)O.CS(=O)(=O)O.N=C(N)c1ccc(/C=C/c2ccc(C(=N)N)cc2O)cc1
- MMP assays IC50 (µM) HepG2 (HepG2 cells [1]): inactive
- MMP assays efficacy (%) HepG2 (HepG2 cells [1]): inactive
- MMP assays efficacy (%) Rat Hepatocytes (rat primary hepatocytes [2]): -71±16%
- MMP assays efficacy (%) qHTS-HepG2 (HepG2 cells [3]): -57±17%
- IC50 (HepG2 cells [3]; [5]): 2.81 ± 0.9 µM
- IC50 (rat primary hepatocytes [4]): 13.6 ± 8.28 µM

Compound: Cl.Nc1ccc(/N=N/c2ccccc2)c(N)c1 [C.I. Basic orange 2]
- MMP assays efficacy (%) HepG2 (HepG2 cells [1]; [6]): -113%
- IC50 (HepG2 cells [1]; [6]): 19.9 µM
- MMP assays efficacy (%) Rat Hepatocytes (rat primary hepatocytes [2]): -34±7%
- MMP assays efficacy (%) qHTS-HepG2 (HepG2 cells [3]): -82±19%
- IC50 (HepG2 cells [3]; [7]): 7.53 ± 5.61 µM
- IC50 (rat primary hepatocytes [4]; rat hepatocytes, mean ± SD of three experiments): 24.9 ± 21.1 µM

Compound: CC1=C(/C=C/C(C)=C/C=C/C(C)=C/C(=O)Nc2ccc(O)cc2)C(C)(C)CCC1
- MMP assays efficacy (%) HepG2 (HepG2 cells [1]): -92%
- IC50 (HepG2 cells [1]): 4.89 µM
- MMP assays efficacy (%) Rat Hepatocytes (rat primary hepatocytes [2]): inactive
- MMP assays efficacy (%) qHTS-HepG2 (HepG2 cells [3]): -100±0%
- IC50 (HepG2 cells [3]; [7]): 3.4 ± 0.76 µM
- MMP assays IC50 (µM) Rat Hepatocytes (rat primary hepatocytes [4]): inactive

Compound: Mepartricin
- MMP assays efficacy (%) HepG2 (HepG2 cells [1]): -99%
- IC50 (HepG2 cells [1]): 6.9 µM
- MMP assays efficacy (%) Rat Hepatocytes (rat primary hepatocytes [2]): -65±17%
- MMP assays efficacy (%) qHTS-HepG2 (HepG2 cells [3]): -82±8%
- IC50 (HepG2 cells [3]; [5]): 23.2 ± 6.59 µM
- IC50 (rat primary hepatocytes [4]): 27.7 ± 4.48 µM

Compound: O=[Se](O)O [Selenious acid]
- MMP assays IC50 (µM) HepG2 (HepG2 cells [1]): inactive
- MMP assays efficacy (%) HepG2 (HepG2 cells [1]): inactive
- MMP assays efficacy (%) Rat Hepatocytes (rat primary hepatocytes [2]): -75±56%
- MMP assays efficacy (%) qHTS-HepG2 (HepG2 cells [3]): -68±13%
- IC50 (HepG2 cells [3]; [5]): 16 ± 22.8 µM
- IC50 (rat primary hepatocytes [4]): 44.1 ± 26.9 µM

Compound: CCN1\C(=C/C=C/C=C/c2sc3ccccc3[n+]2CC)Sc2ccccc21.[Cl-] [Dithiazanine chloride]
- MMP assays efficacy (%) HepG2 (HepG2 cells [1]): -79%
- IC50 (HepG2 cells [1]): 0.15 µM
- MMP assays efficacy (%) Rat Hepatocytes (rat primary hepatocytes [2]): -77±9%
- MMP assays efficacy (%) qHTS-HepG2 (HepG2 cells [3]): -56±6%
- IC50 (HepG2 cells [3]; [7]): 0.27 µM
- IC50 (rat primary hepatocytes [4]): 2.45 µM

Compound: CC(C)C[C@H]1C(=O)N2CCC[C@H]2[C@]2(O)O[C@](NC(=O)[C@@H]3C=C4c5cccc6[nH]c(Br)c(c56)C[C@H]4N(C)C3)(C(C)C)C(=O)N12 [Bromocriptine mesylate]
- MMP assays efficacy (%) HepG2 (HepG2 cells [1]): -113%
- IC50 (HepG2 cells [1]): 13.5 µM
- MMP assays efficacy (%) Rat Hepatocytes (rat primary hepatocytes [2]): -74±34%
- MMP assays efficacy (%) qHTS-HepG2 (HepG2 cells [3]): -111±8%
- IC50 (HepG2 cells [3]; [7]): 11.2 ± 2.78 µM
- IC50 (rat primary hepatocytes [4]): 12.6 ± 1.6 µM

Compound: Cl.Nc1ccc(Nc2ccccc2)cc1
- MMP assays efficacy (%) HepG2 (HepG2 cells [1]): -54%
- IC50 (HepG2 cells [1]): 28.2 µM
- MMP assays efficacy (%) Rat Hepatocytes (rat primary hepatocytes [2]): inactive
- MMP assays efficacy (%) qHTS-HepG2 (HepG2 cells [3]): -69±28%
- IC50 (HepG2 cells [3]; [5]): 5.82 ± 6.96 µM
- MMP assays IC50 (µM) Rat Hepatocytes (rat primary hepatocytes [4]): inactive

Compound: ClC1C(Cl)C(Cl)C(Cl)C(Cl)C1Cl (stereo not drawn) [alpha-1,2,3,4,5,6-Hexachlorocyclohexane]
- MMP assays IC50 (µM) HepG2 (HepG2 cells [1]): inactive
- MMP assays efficacy (%) HepG2 (HepG2 cells [1]): inactive
- MMP assays efficacy (%) Rat Hepatocytes (rat primary hepatocytes [2]): -54±20%
- MMP assays efficacy (%) qHTS-HepG2 (HepG2 cells [3]): -54±7%
- IC50 (HepG2 cells [3]; [7]): 49 ± 6.35 µM
- IC50 (rat primary hepatocytes [4]): 39.8 µM

Compound: Nc1ccc(/N=N/c2ccccc2)c(N)n1 [Phenazopyridine hydrochloride]
- MMP assays IC50 (µM) HepG2 (HepG2 cells [1]): inactive
- MMP assays efficacy (%) HepG2 (HepG2 cells [1]): inactive
- MMP assays efficacy (%) Rat Hepatocytes (rat primary hepatocytes [2]): -59±26%
- MMP assays efficacy (%) qHTS-HepG2 (HepG2 cells [3]): -74±20%
- IC50 (HepG2 cells [3]; [5]): 15.7 ± 3.45 µM
- IC50 (rat primary hepatocytes [4]; Rattus norvegicus, Hepatocyte): 23.8 ± 1.93 µM

Compound: Nc1ccc(-c2ccc(N)c(N)c2)cc1N [3,3',4,4'-Tetraaminobiphenyl tetrahydrochloride]
- MMP assays efficacy (%) HepG2 (HepG2 cells [1]): -82%
- IC50 (HepG2 cells [1]): 2 µM
- MMP assays efficacy (%) Rat Hepatocytes (rat primary hepatocytes [2]): -39±5%
- MMP assays efficacy (%) qHTS-HepG2 (HepG2 cells [3]): -92±8%
- IC50 (HepG2 cells [3]; [7]): 0.34 ± 0.26 µM
- IC50 (rat primary hepatocytes [4]): 9.46 ± 4.43 µM

Compound: CN(N=O)c1ccc([N+](=O)[O-])cc1 [N-Nitroso-N-methyl-4-nitroaniline]
- MMP assays IC50 (µM) HepG2 (HepG2 cells [1]): inactive
- MMP assays efficacy (%) HepG2 (HepG2 cells [1]): inactive
- MMP assays efficacy (%) Rat Hepatocytes (rat primary hepatocytes [2]): -69+6%
- MMP assays IC50 (µM) qHTS-HepG2 (HepG2 cells [3]): inactive
- MMP assays efficacy (%) qHTS-HepG2 (HepG2 cells [3]): inactive
- IC50 (rat primary hepatocytes [4]): 20 ± 16.6 µM
